Like-named read-outs stand apart in the source and are kept apart here.
Legend:
AhR = target: T1, AhR (Homo sapiens, UniProt P35869); test: Reporter gene assay in AZ-AHR cells, antagonist analyses against TCDD, BaP, FICZ; conditions: for antagonistic effect against full agonists / effect on AhR activation by BaP / effect on AhR activation by FICZ / effect on AhR activation by TCDD: AZ-AHR cells, 24 h; for antagonistic effect against full agonists: TCDD, BaP and FICZ at EC80; for effect on AhR activation by BaP: BaP 15.8 µM; for effect on AhR activation by FICZ: FICZ 22.6 µM; for effect on AhR activation by TCDD: TCDD 13.5 nM
T1 sequence (P35869 11-848): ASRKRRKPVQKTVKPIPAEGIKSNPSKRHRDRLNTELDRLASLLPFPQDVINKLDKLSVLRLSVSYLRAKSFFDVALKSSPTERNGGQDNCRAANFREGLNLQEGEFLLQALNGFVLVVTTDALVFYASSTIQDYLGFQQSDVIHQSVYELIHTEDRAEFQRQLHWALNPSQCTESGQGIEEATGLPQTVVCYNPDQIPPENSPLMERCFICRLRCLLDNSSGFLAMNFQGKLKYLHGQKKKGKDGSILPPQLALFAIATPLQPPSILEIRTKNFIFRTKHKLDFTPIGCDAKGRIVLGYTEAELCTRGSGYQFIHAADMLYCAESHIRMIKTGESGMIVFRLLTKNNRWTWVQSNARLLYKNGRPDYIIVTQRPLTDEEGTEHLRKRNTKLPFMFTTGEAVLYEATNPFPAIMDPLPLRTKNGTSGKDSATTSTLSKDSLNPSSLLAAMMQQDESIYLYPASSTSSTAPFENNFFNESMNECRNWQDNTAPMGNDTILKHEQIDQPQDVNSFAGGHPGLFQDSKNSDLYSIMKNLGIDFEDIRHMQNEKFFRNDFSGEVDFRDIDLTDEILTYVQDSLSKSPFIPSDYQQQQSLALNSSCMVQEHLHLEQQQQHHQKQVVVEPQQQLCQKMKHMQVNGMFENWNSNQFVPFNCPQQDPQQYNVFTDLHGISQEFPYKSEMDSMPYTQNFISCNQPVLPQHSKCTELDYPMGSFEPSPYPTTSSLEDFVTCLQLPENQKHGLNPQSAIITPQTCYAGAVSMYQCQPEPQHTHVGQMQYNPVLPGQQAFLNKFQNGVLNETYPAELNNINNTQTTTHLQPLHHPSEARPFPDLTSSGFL
Description: In the first series of experiments, we evaluated the agonistic and antagonistic effects of MICT on the AhR activation. […] The antagonistic effects of MICT were evaluated against typical full agonists of the AhR, comprising TCDD, BaP, and FICZ, which were applied at fixed concentrations corresponding to their EC80.
AZ-AHR cells were incubated for 24 h with vehicle (DMSO; 0.1% v/v) and increasing concentrations of MICT, in the absence (agonist analyses) or the presence (antagonist analyses) of TCDD (13.5 nM), BaP (15.8 µM) and FICZ (22.6 µM). Following the treatments, we lysed cells, and luciferase activity was measured. Experiments were performed at least in four consecutive cell passages. Incubations were performed in quadruplicates (technical replicates). In agonist analyses, the data from a representative experiment, expressed as a fold induction of luciferase activity over control cells, are shown. In antagonist analyses, the data are a percentage of maximal induction, and they are the mean ± SD.
AZ-AHR cells were incubated for 24 h with vehicle (DMSO; 0.1% v/v) and increasing concentrations of tested MICT in the presence or absence of TCDD (13.5 nM), FICZ (22.6 µM), or BaP (15.8 µM). Then, cells were lysed, and luciferase activity was measured using the Tecan Infinite M200 plate luminometer (Schoeller Instruments, Czech Republic). The experiments were performed in at least four consecutive cell passages, and the treatments were in quadruplicates (technical replicates). The values of half-maximal effective concentration (EC50) for each MICT, and half-maximal inhibitory concentration (IC50—where appropriate) were calculated.

CYP1A1 mRNA = CYP1A1 mRNA (qRT-PCR) in primary human hepatocytes; type: cell-based; conditions: three donors, 24 h
Description: Figure 4 Effects of MICT on the induction of CYP1A1 mRNA in human hepatic and intestinal cells. Cultured cells were incubated for 24 h with the vehicle (DMSO; 0.1% v/v) and tested MICT in the presence or absence of TCDD (10 nM). RT-PCR determined the level of CYP1A1 mRNA, and the data were normalized per GAPDH mRNA level. […] (A,B) Experiments in three consecutive passages of human colon adenocarcinoma cell line LS180 in the absence (A) and the presence (B) of 10 nM TCDD. The bar graphs show the percentage of maximal induction attained by TCDD and are expressed as the mean ± SD. (C) Experiments in three consecutive passages of wild-type (AhR^+/^+) and AhR-knockout (AhR^−/^−) HT-29 cells. […] (D) Primary human hepatocytes from three different donors (LH79, Hep2201020, and Hep2201021).
Primary human hepatocyte cultures were from two sources: (i) long-term human hepatocytes in monolayer batch Hep2201020 (person) and Hep2201021 (person) were purchased from Biopredic International (Rennes, France); (ii) primary human hepatocytes from multiorgan donor LH79 were prepared at Palacky University Olomouc. Liver tissue was obtained from Faculty Hospital Olomouc, and the tissue acquisition protocol followed the requirements issued by the “Ethical Committee of the Faculty Hospital Olomouc, Czech Republic” and Transplantation law #285/2002 Coll.
Total RNA was isolated using TRI Reagent® (Sigma Aldrich, Prague, Czech Republic). cDNA was synthesized using M-MuLV reverse transcriptase (New England Biolabs, Ipswich, MA, USA). The reverse transcription was performed at 42 °C for 60 min using Random Primers 6 (New England Biolabs, Ipswich, MA, USA) and diluted in a 1:4 ratio by PCR-grade water. The quantitative reverse transcriptase-polymerase chain reaction (qRT-PCR) was performed on the Lightcycler 480 II using the LightCycler ® 480 Probes Master (Roche Diagnostic Corporation, Prague, Czech Republic). The levels of CYP1A1 and GAPDH mRNAs were determined using the Universal Probe Library probes (UPL; Roche Diagnostic Corporation, Prague, Czech Republic) in combination with specific primers, using a protocol described elsewhere. All measurements were performed in triplicates, and the gene expression was normalized to glyceraldehyde-3-phosphate dehydrogenase (GAPDH) as a house-keeping gene. The data were processed using the delta-delta Ct method and expressed as a fold induction over the negative control (DMSO) or as a percentage of the positive control (maximal induction by TCDD).

Compound	antagonistic effect against full agonists (AhR)	Antagonism (IC50) (AhR; Table 1 summary class)	induction of CYP1A1 mRNA (CYP1A1 mRNA)	effect on AhR activation by BaP (AhR)	effect on AhR activation by FICZ (AhR)	effect on AhR activation by TCDD (AhR)	IC50 (AhR) [µM]	Antagonism (IC50) (AhR)
c1ccc2[nH]ccc2c1 [IND, indole]	dose-dependent antagonistic effect	yes–all ligands	induced	–	–	–	–	–
O=C(O)/C=C/c1c[nH]c2ccccc12 [IAC, indole-3-acrylate]	no antagonistic effects	none	induced	–	–	–	–	–
NC(=O)Cc1c[nH]c2ccccc12 [IAD, indole-3-acetamide]	–	–	induced	potentiated	potentiated	antagonized	–	–
Cc1c[nH]c2ccccc12 [3MI, skatole]	ligand-selective antagonism	ligand selective	induced	dose-dependently inhibited	–	dose-dependently inhibited	–	–
O=C(O)C(=O)Cc1c[nH]c2ccccc12 [IPY, indole-3-pyruvate]	–	ligand selective	induced	potentiated	potentiated	antagonized	–	–
OCCc1c[nH]c2ccccc12 [IET, indole-3-ethanol]	no antagonistic effects	–	–	–	–	–	–	–
O=Cc1c[nH]c2ccccc12 [IA, indole-3-aldehyde]	dose-dependent antagonistic effect	yes–all ligands	–	–	–	–	100 to 200	–
NCCc1c[nH]c2ccccc12 [TA, tryptamine]	dose-dependent antagonistic effect	yes–all ligands	lack of induction	–	–	–	–	–
O=C(O)C(O)Cc1c[nH]c2ccccc12 (centres unmarked) [ILA, indole-3-lactate]	no antagonistic effects	–	–	–	–	–	–	none

Source: PMC7177849, “Gut Microbial Catabolites of Tryptophan Are Ligands and Agonists of the Aryl Hydrocarbon Receptor: A Detailed Characterization” (International Journal of Molecular Sciences, 2020)
